US20230112418A1, “COMPOUND AND RADIOACTIVE LABELING COMPOUND” (NIHON MEDI-PHYSICS CO., LTD., priority 2020, published 2023)

Columns and labels:
[1] = tested on: LNCaP tumor transplanted mice; test: In vivo radioactivity distribution using LNCaP tumor transplanted mice
Method: (§1) Animal experiments were performed in accordance with the guidelines of Kyoto University Animal Experiment Committee. Male CB17/IcrJcl-Prkdc^scid mice were purchased from CLEA Japan, Inc. The animals were raised under 12 h/12 h day/night cycle conditions and freely fed with food and water. LNCaP cells (1.0×10^7 cells/mouse) or PC-3 cells (1.0×10^7 cells/mouse) were suspended in a mixed liquid (1:1,150 μL) of PBS and Matrigel manufactured by Corning Life Sciences Inc., and the suspension was subcutaneously transplanted to the right shoulder of each of the mice under isoflurane anesthesia. Thereafter, the mice were raised for 40 to 60 days.
(§2) A saline solution (185 kBq, 100 μL) of [^111In]In-PSMA-DA1 or [^111In]In-PSMA-DB was injected into each of LNCaP or PC-3 tumor transplanted mice via the tail vein thereof (n=3 in each group). The mice were euthanized 1, 4, 24, 48, 96, and 192 hours after the injection. Thereafter, blood and organs were collected, and the mass and radioactivity of each of the organs were measured.
A result thereof is indicated as a value (% ID/g) obtained by dividing the percentage (% ID) of the amount of radioactivity with respect to the amount of injected radioactivity (injected dose) by the mass of blood or the mass of an organ (g). […]

[2] = tested on: PC-3 tumor transplanted mice; test: In vivo radioactivity distribution using PC-3 tumor transplanted mice
Method: as §1, §2
A result thereof is indicated as a value (% ID/g) obtained by dividing the percentage (% ID) of the amount of radioactivity with respect to the amount of injected radioactivity (injected dose) by the mass of blood or the mass of an organ (g).

[3] = tested on: LNCaP tumor transplanted mice; test: SPECT/CT using LNCaP tumor transplanted mice; assay type: in vivo; conditions: FIG. 7
Method: A saline solution (1.9 to 3.0 MBq, 150 μL) of [^111In]In-PSMA-DA1 or [^111In]In-PSMA-DB was injected into each of the LNCaP tumor transplanted mice generated by the above-described method via the tail vein thereof. SPECT/CT was performed with an FX3300 pre-clinical imaging system manufactured by Gamma Medica-Ideas 24 and 48 hours after the injection. Imaging was performed under isoflurane anesthesia using a pinhole collimator with a diameter of 1.0 mm at a rotation radius of 35 mm, a scan time of 70 seconds, and the number of times of imaging of 32. After SPECT, CT (tube voltage: 60 kV, tube current: 350 μA) was performed. Image reconstruction by a three-dimensional ordered subset expectation maximization method (8 subsets, 5 iterations) was performed on projection data of SPECT.
Results of SPECT/CT are illustrated in FIG. 7. In FIG. 7, a portion indicated by an arrow is a position where the tumor is present, and a portion indicated by a circle is a position where the kidney is present. The higher the SUV, the amount of radioactivity accumulated is large.

O=C([O-])CN1CCN(C(CCC(=O)NCCCC[C@H](NC(=O)N[C@@H](CCC(=O)O)C(=O)O)C(=O)O)C(=O)[O-])CCN(CC(=O)[O-])CCN(C(CCC(=O)Nc2ccccc2)C(=O)[O-])CC1.[111In+3] (some centres unmarked) [[^111In]In-PSMA-DB]
Accumulation: Blood ([1]; 1 hour after injection): 3.33 ± 0.21 % ID/g | Accumulation: Brain ([1]; 1 hour after injection): 0.06 ± 0.01 % ID/g | Accumulation: Heart ([1]; 1 hour after injection): 0.87 ± 0.33 % ID/g | Accumulation: Intestinal ([1]; 1 hour after injection): 0.59 ± 0.14 % ID/g | Accumulation: Kidney ([1]; 1 hour after injection): 59.2 ± 35.2 % ID/g | Accumulation: LNCaP tumor ([1]; 1 hour after injection): 3.36 ± 0.04 % ID/g | Accumulation: Liver ([1]; 1 hour after injection): 0.91 ± 0.20 % ID/g | Accumulation: Lung ([1]; 1 hour after injection): 2.24 ± 0.60 % ID/g | Accumulation: Muscle ([1]; 1 hour after injection): 0.23 ± 0.68 % ID/g | Accumulation: Pancreas ([1]; 1 hour after injection): 0.74 ± 0.25 % ID/g | Accumulation: Spleen ([1]; 1 hour after injection): 3.05 ± 0.53 % ID/g | Accumulation: Stomach ([1]; 1 hour after injection): 0.10 ± 0.04 % ID | Accumulation: Blood ([1]; 4 hours after injection): 2.00 ± 0.29 % ID/g | Accumulation: Brain ([1]; 4 hours after injection): 0.05 ± 0.00 % ID/g | Accumulation: Heart ([1]; 4 hours after injection): 0.60 ± 0.08 % ID/g | Accumulation: Intestinal ([1]; 4 hours after injection): 1.05 ± 0.10 % ID/g | Accumulation: Kidney ([1]; 4 hours after injection): 22.7 ± 9.69 % ID/g | Accumulation: LNCaP tumor ([1]; 4 hours after injection): 2.50 ± 0.50 % ID/g | Accumulation: Liver ([1]; 4 hours after injection): 0.95 ± 0.05 % ID/g | Accumulation: Lung ([1]; 4 hours after injection): 1.56 ± 0.07 % ID/g | Accumulation: Muscle ([1]; 4 hours after injection): 0.21 ± 0.04 % ID/g | Accumulation: Pancreas ([1]; 4 hours after injection): 0.54 ± 0.22 % ID/g | Accumulation: Spleen ([1]; 4 hours after injection): 2.39 ± 0.05 % ID/g | Accumulation: Stomach ([1]; 4 hours after injection): 0.13 ± 0.03 % ID | Accumulation: Blood ([1]; 24 hours after injection): 0.68 ± 0.17 % ID/g | Accumulation: Brain ([1]; 24 hours after injection): 0.07 ± 0.02 % ID/g | Accumulation: Heart ([1]; 24 hours after injection): 0.43 ± 0.07 % ID/g | Accumulation: Intestinal ([1]; 24 hours after injection): 1.00 ± 0.44 % ID/g | Accumulation: Kidney ([1]; 24 hours after injection): 13.2 ± 2.41 % ID/g | Accumulation: LNCaP tumor ([1]; 24 hours after injection): 2.09 ± 0.39 % ID/g | Accumulation: Liver ([1]; 24 hours after injection): 1.55 ± 0.32 % ID/g | Accumulation: Lung ([1]; 24 hours after injection): 0.97 ± 0.15 % ID/g | Accumulation: Muscle ([1]; 24 hours after injection): 0.21 ± 0.07 % ID/g | Accumulation: Pancreas ([1]; 24 hours after injection): 0.71 ± 0.10 % ID/g | Accumulation: Spleen ([1]; 24 hours after injection): 3.37 ± 0.75 % ID/g | Accumulation: Stomach ([1]; 24 hours after injection): 0.16 ± 0.05 % ID | Accumulation: Blood ([1]; 48 hours after injection): 0.27 ± 0.16 % ID/g | Accumulation: Brain ([1]; 48 hours after injection): 0.03 ± 0.02 % ID/g | Accumulation: Heart ([1]; 48 hours after injection): 0.32 ± 0.05 % ID/g | Accumulation: Intestinal ([1]; 48 hours after injection): 0.79 ± 0.21 % ID/g | Accumulation: Kidney ([1]; 48 hours after injection): 8.58 ± 2.02 % ID/g | Accumulation: LNCaP tumor ([1]; 48 hours after injection): 1.69 ± 0.77 % ID/g | Accumulation: Liver ([1]; 48 hours after injection): 1.28 ± 0.16 % ID/g | Accumulation: Lung ([1]; 48 hours after injection): 0.66 ± 0.24 % ID/g | Accumulation: Muscle ([1]; 48 hours after injection): 0.15 ± 0.06 % ID/g | Accumulation: Pancreas ([1]; 48 hours after injection): 0.71 ± 0.17 % ID/g | Accumulation: Spleen ([1]; 48 hours after injection): 2.63 ± 0.83 % ID/g | Accumulation: Stomach ([1]; 48 hours after injection): 0.07 ± 0.02 % ID | Accumulation: Blood ([1]; 96 hours after injection): 0.14 ± 0.04 % ID/g | Accumulation: Brain ([1]; 96 hours after injection): 0.09 ± 0.05 % ID/g | Accumulation: Heart ([1]; 96 hours after injection): 0.40 ± 0.12 % ID/g | Accumulation: Intestinal ([1]; 96 hours after injection): 0.41 ± 0.17 % ID/g | Accumulation: Kidney ([1]; 96 hours after injection): 7.04 ± 3.28 % ID/g | Accumulation: LNCaP tumor ([1]; 96 hours after injection): 1.05 ± 0.03 % ID/g | Accumulation: Liver ([1]; 96 hours after injection): 1.59 ± 0.57 % ID/g | Accumulation: Lung ([1]; 96 hours after injection): 0.70 ± 0.15 % ID/g | Accumulation: Muscle ([1]; 96 hours after injection): 0.14 ± 0.08 % ID/g | Accumulation: Pancreas ([1]; 96 hours after injection): 0.85 ± 0.39 % ID/g | Accumulation: Spleen ([1]; 96 hours after injection): 2.82 ± 0.87 % ID/g | Accumulation: Stomach ([1]; 96 hours after injection): 0.10 ± 0.03 % ID | Accumulation: Blood ([1]; 192 hours after injection): 0.07 ± 0.03 % ID/g | Accumulation: Brain ([1]; 192 hours after injection): 0.04 ± 0.00 % ID/g | Accumulation: Heart ([1]; 192 hours after injection): 0.33 ± 0.01 % ID/g | Accumulation: Intestinal ([1]; 192 hours after injection): 0.13 ± 0.02 % ID/g | Accumulation: Kidney ([1]; 192 hours after injection): 3.47 ± 1.24 % ID/g | Accumulation: LNCaP tumor ([1]; 192 hours after injection): 0.83 ± 0.11 % ID/g | Accumulation: Liver ([1]; 192 hours after injection): 1.20 ± 0.09 % ID/g | Accumulation: Lung ([1]; 192 hours after injection): 0.67 ± 0.05 % ID/g | Accumulation: Muscle ([1]; 192 hours after injection): 0.14 ± 0.09 % ID/g | Accumulation: Pancreas ([1]; 192 hours after injection): 1.04 ± 0.18 % ID/g | Accumulation: Spleen ([1]; 192 hours after injection): 3.46 ± 0.32 % ID/g | Accumulation: Stomach ([1]; 192 hours after injection): 0.05 ± 0.00 % ID | Tumor accumulation compared with [^111In]In-PSMA-DA1 (in words) ([1]; LNCaP tumor): tumor accumulation lower than that of [^111In]In-PSMA-DA1 | Tumor/kidney ratio compared with [^111In]In-PSMA-DA1 (in words) ([1]; at any time point): lower tumor/kidney ratio | Accumulation: Blood ([2]; 1 hour after injection): 1.92 ± 0.27 % ID/g | Accumulation: Brain ([2]; 1 hour after injection): 0.06 ± 0.00 % ID/g | Accumulation: Heart ([2]; 1 hour after injection): 0.49 ± 0.05 % ID/g | Accumulation: Intestinal ([2]; 1 hour after injection): 0.48 ± 0.04 % ID/g | Accumulation: Kidney ([2]; 1 hour after injection): 49.5 ± 12.6 % ID/g | Accumulation: Liver ([2]; 1 hour after injection): 0.62 ± 0.03 % ID/g | Accumulation: Lung ([2]; 1 hour after injection): 1.36 ± 0.23 % ID/g | Accumulation: Muscle ([2]; 1 hour after injection): 0.21 ± 0.08 % ID/g | Accumulation: PC-3 tumor ([2]; 1 hour after injection): 0.61 ± 0.06 % ID/g | Accumulation: Pancreas ([2]; 1 hour after injection): 0.44 ± 0.06 % ID/g | Accumulation: Spleen ([2]; 1 hour after injection): 2.57 ± 0.39 % ID/g | Accumulation: Stomach ([2]; 1 hour after injection): 0.12 ± 0.04 % ID | Accumulation in the PC-3 tumor compared with the LNCaP tumor (in words) ([2]; same time point): lower than accumulation thereof in the LNCaP tumor at the same time point | SPECT/CT radioactivity accumulation in the LNCaP tumor (in words) ([3]; 24 and 48 hours after the injection): radioactivity accumulation was also observed in the LNCaP tumor | SPECT/CT kidney versus tumor radioactivity (in words) [3]: the accumulation was lower than that in the kidney
